Data reported in PubChem BioAssay (NCI).
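Tested at 5 concentrations; 48 h exposure; 96-well plates; endpoints linearly interpolated, else capped at highest concentration. GI50 is the concentration that inhibits growth by half. The concentration for full growth arrest is given as TGI.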

Assays:
Experiment in all cases: inhibition of tumour cell growth, NCI panel, 48 h
[1] = test system: 786-0 renal
[2] = test system: A498 renal
[3] = test system: A549 NSCLC
[4] = test system: ACHN renal
[5] = test system: BT-549 breast
[6] = test system: CAKI-1 renal
[7] = test system: CCRF-CEM leukemia
[8] = test system: COLO 205 colon
[9] = test system: DU-145 prostate
[10] = test system: EKVX NSCLC
[11] = test system: HCC-2998 colon
[12] = test system: HCT-116 colon
[13] = test system: HCT-15 colon
[14] = test system: HL-60(TB) leukemia
[15] = test system: HOP-62 NSCLC
[16] = test system: HOP-92 NSCLC
[17] = test system: HS 578T breast
[18] = test system: HT29 colon
[19] = test system: IGROV1 ovarian
[20] = test system: K-562 leukemia
[21] = test system: KM12 colon
[22] = test system: LOX IMVI melanoma
[23] = test system: M14 melanoma
[24] = test system: MALME-3M melanoma
[25] = test system: MCF7 breast
[26] = test system: MDA-MB-231 breast
[27] = test system: MDA-MB-435
[28] = test system: MOLT-4 leukemia
[29] = test system: NCI-H226 lung
[30] = test system: NCI-H23 lung
[31] = test system: NCI-H460 lung
[32] = test system: NCI-H522 lung
[33] = test system: NCI/ADR-RES ovarian
[34] = test system: OVCAR-3 ovarian
[35] = test system: OVCAR-4 ovarian
[36] = test system: OVCAR-5 ovarian
[37] = test system: OVCAR-8 ovarian
[38] = test system: PC-3 prostate
[39] = test system: RPMI-8226 leukemia
[40] = test system: RXF 393 renal
[41] = test system: SF-268 CNS
[42] = test system: SF-295 CNS
[43] = test system: SF-539 CNS
[44] = test system: SK-MEL-2 melanoma
[45] = test system: SK-MEL-28 melanoma
[46] = test system: SK-MEL-5 melanoma
[47] = test system: SK-OV-3 ovarian
[48] = test system: SN12C renal
[49] = test system: SNB-19 CNS
[50] = test system: SNB-75 CNS
[51] = test system: SR leukemia
[52] = test system: SW-620 colon
[53] = test system: T-47D breast
[54] = test system: TK-10 renal
[55] = test system: U251 CNS
[56] = test system: UACC-257 melanoma
[57] = test system: UACC-62 melanoma
[58] = test system: UO-31 renal

Structure (SMILES): CCNCCCn1c2c(c3cc(OC)c(OC)cc3c1=O)C(=O)c1cc(OC)cnc1-2
- GI50 [1]: 718 nM
- TGI [1]: 6400 nM
- GI50 [2]: 28000 nM
- TGI [2]: > 58200 nM
- GI50 [3]: 2100 nM
- TGI [3]: 33800 nM
- GI50 [4]: 341 nM
- TGI [4]: 29300 nM
- GI50 [5]: 1320 nM
- TGI [5]: 25500 nM
- GI50 [6]: 339 nM
- TGI [6]: > 50000 nM
- GI50 [7]: 122 nM
- TGI [7]: 23300 nM
- GI50 [8]: 1380 nM
- TGI [8]: > 53500 nM
- GI50 [9]: 639 nM
- TGI [9]: 15000 nM
- GI50 [10]: 15700 nM
- TGI [10]: > 58600 nM
- GI50 [11]: 1670 nM
- TGI [11]: 29500 nM
- GI50 [12]: 376 nM
- TGI [12]: 6590 nM
- GI50 [13]: 1390 nM
- TGI [13]: 19700 nM
- GI50 [14]: 1040 nM
- TGI [14]: 11800 nM
- GI50 [15]: 213 nM
- TGI [15]: 2640 nM
- GI50 [16]: 4030 nM
- TGI [16]: > 60300 nM
- GI50 [17]: > 43900 nM
- TGI [17]: > 70300 nM
- GI50 [18]: 462 nM
- TGI [18]: 2770 nM
- GI50 [19]: 1020 nM
- TGI [19]: > 52800 nM
- GI50 [20]: 256 nM
- TGI [20]: 22900 nM
- GI50 [21]: 3330 nM
- TGI [21]: 50000 nM
- GI50 [22]: 313 nM
- TGI [22]: 2320 nM
- GI50 [23]: 517 nM
- TGI [23]: 25800 nM
- GI50 [24]: 10900 nM
- TGI [24]: 36600 nM
- GI50 [25]: 120 nM
- TGI [25]: 13000 nM
- GI50 [26]: 2660 nM
- TGI [26]: 20300 nM
- GI50 [27]: 1990 nM
- TGI [27]: > 55600 nM
- GI50 [28]: 95.3 nM
- TGI [28]: 8080 nM
- GI50 [29]: 1280 nM
- TGI [29]: > 35800 nM
- GI50 [30]: 736 nM
- TGI [30]: 7180 nM
- GI50 [31]: 153 nM
- TGI [31]: 5110 nM
- GI50 [32]: 197 nM
- TGI [32]: 19600 nM
- GI50 [33]: 1040 nM
- TGI [33]: 27200 nM
- GI50 [34]: 1400 nM
- TGI [34]: 18700 nM
- GI50 [35]: 2560 nM
- TGI [35]: 18700 nM
- GI50 [36]: 3890 nM
- TGI [36]: 35100 nM
- GI50 [37]: 1200 nM
- TGI [37]: 20100 nM
- GI50 [38]: 1840 nM
- TGI [38]: 26800 nM
- GI50 [39]: 440 nM
- TGI [39]: 4860 nM
- GI50 [40]: 1030 nM
- TGI [40]: 4770 nM
- GI50 [41]: 765 nM
- TGI [41]: > 63100 nM
- GI50 [42]: 159 nM
- TGI [42]: 11200 nM
- GI50 [43]: 432 nM
- TGI [43]: 2140 nM
- GI50 [44]: > 38900 nM
- TGI [44]: > 75900 nM
- GI50 [45]: 48500 nM
- TGI [45]: > 63100 nM
- GI50 [46]: 794 nM
- TGI [46]: 3300 nM
- GI50 [47]: 471 nM
- TGI [47]: 2060 nM
- GI50 [48]: 837 nM
- TGI [48]: > 51400 nM
- GI50 [49]: 529 nM
- TGI [49]: > 51300 nM
- GI50 [50]: 474 nM
- TGI [50]: 3450 nM
- GI50 [51]: 68.5 nM
- TGI [51]: 3290 nM
- GI50 [52]: 358 nM
- TGI [52]: 19300 nM
- GI50 [53]: 711 nM
- TGI [53]: > 100000 nM
- GI50 [54]: > 50400 nM
- TGI [54]: > 66400 nM
- GI50 [55]: 267 nM
- TGI [55]: 9160 nM
- GI50 [56]: 1980 nM
- TGI [56]: > 55000 nM
- GI50 [57]: 388 nM
- TGI [57]: 8210 nM
- GI50 [58]: 615 nM
- TGI [58]: > 47200 nM
